{"source": "ChEMBL document CHEMBL1201862", "about": "“PubChem BioAssay data set” (2004)", "key": {"[1]": {"biological_target": "T1, Zinc finger protein mex-5 (Caenorhabditis elegans, UniProt Q9XUB2)", "T1 sequence (Q9XUB2 whole entry)": "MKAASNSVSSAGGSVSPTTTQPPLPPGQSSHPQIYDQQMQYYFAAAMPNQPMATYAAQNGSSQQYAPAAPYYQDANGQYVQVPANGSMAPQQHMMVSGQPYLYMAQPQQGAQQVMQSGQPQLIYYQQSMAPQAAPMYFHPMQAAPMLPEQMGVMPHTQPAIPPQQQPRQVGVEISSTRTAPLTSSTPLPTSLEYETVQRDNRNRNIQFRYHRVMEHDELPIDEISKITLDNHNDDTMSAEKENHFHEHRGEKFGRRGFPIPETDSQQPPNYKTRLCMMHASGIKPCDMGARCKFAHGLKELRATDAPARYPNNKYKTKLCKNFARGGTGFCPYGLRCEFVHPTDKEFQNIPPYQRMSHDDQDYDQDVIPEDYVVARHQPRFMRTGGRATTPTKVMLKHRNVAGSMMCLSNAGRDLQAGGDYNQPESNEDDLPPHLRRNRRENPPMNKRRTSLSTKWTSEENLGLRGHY", "test": "MEX-5/TCR-2 RNA interaction inhibitors, dose response, biochemical, C. elegans, fluorescence polarization (AID 1960)"}, "[2]": {"biological_target": "Glutathione-S-transferase (Schistosoma japonicum, UniProt Q26513)", "sequence (Q26513 whole entry)": "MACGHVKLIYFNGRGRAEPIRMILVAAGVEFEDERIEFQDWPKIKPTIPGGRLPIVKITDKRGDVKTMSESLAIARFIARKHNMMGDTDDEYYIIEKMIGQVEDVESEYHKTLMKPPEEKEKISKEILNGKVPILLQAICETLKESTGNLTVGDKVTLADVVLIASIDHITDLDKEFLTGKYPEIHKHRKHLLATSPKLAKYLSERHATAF", "test": "biotin-GST/anti-GST TR-FRET signal inhibitors, dose response, artefact control for Vif-APOBEC3G degradation inhibitor project, biochemical (AID 1117362)", "assay_type": "functional"}, "[3]": {"biological_target": "T2, Dual specificity protein phosphatase 6 (Rattus norvegicus, UniProt Q64346)", "T2 sequence (Q64346 whole entry)": "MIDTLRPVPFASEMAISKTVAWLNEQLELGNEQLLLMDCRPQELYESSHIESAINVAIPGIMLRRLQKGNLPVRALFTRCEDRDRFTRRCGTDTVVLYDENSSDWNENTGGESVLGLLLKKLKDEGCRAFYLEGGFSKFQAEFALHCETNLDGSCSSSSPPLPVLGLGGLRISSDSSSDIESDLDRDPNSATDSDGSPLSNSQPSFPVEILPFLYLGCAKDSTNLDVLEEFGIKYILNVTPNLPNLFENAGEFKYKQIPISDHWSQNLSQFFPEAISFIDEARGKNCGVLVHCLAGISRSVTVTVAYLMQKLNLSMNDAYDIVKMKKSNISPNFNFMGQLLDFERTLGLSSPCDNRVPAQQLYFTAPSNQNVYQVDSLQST"}, "[4]": {"biological_target": "Voltage-gated N-type calcium channel alpha-1B subunit/Amyloid beta A4 precursor protein-binding family A member 1 (Homo sapiens, UniProt Q00975+Q02410)", "sequence (Q00975 whole entry)": "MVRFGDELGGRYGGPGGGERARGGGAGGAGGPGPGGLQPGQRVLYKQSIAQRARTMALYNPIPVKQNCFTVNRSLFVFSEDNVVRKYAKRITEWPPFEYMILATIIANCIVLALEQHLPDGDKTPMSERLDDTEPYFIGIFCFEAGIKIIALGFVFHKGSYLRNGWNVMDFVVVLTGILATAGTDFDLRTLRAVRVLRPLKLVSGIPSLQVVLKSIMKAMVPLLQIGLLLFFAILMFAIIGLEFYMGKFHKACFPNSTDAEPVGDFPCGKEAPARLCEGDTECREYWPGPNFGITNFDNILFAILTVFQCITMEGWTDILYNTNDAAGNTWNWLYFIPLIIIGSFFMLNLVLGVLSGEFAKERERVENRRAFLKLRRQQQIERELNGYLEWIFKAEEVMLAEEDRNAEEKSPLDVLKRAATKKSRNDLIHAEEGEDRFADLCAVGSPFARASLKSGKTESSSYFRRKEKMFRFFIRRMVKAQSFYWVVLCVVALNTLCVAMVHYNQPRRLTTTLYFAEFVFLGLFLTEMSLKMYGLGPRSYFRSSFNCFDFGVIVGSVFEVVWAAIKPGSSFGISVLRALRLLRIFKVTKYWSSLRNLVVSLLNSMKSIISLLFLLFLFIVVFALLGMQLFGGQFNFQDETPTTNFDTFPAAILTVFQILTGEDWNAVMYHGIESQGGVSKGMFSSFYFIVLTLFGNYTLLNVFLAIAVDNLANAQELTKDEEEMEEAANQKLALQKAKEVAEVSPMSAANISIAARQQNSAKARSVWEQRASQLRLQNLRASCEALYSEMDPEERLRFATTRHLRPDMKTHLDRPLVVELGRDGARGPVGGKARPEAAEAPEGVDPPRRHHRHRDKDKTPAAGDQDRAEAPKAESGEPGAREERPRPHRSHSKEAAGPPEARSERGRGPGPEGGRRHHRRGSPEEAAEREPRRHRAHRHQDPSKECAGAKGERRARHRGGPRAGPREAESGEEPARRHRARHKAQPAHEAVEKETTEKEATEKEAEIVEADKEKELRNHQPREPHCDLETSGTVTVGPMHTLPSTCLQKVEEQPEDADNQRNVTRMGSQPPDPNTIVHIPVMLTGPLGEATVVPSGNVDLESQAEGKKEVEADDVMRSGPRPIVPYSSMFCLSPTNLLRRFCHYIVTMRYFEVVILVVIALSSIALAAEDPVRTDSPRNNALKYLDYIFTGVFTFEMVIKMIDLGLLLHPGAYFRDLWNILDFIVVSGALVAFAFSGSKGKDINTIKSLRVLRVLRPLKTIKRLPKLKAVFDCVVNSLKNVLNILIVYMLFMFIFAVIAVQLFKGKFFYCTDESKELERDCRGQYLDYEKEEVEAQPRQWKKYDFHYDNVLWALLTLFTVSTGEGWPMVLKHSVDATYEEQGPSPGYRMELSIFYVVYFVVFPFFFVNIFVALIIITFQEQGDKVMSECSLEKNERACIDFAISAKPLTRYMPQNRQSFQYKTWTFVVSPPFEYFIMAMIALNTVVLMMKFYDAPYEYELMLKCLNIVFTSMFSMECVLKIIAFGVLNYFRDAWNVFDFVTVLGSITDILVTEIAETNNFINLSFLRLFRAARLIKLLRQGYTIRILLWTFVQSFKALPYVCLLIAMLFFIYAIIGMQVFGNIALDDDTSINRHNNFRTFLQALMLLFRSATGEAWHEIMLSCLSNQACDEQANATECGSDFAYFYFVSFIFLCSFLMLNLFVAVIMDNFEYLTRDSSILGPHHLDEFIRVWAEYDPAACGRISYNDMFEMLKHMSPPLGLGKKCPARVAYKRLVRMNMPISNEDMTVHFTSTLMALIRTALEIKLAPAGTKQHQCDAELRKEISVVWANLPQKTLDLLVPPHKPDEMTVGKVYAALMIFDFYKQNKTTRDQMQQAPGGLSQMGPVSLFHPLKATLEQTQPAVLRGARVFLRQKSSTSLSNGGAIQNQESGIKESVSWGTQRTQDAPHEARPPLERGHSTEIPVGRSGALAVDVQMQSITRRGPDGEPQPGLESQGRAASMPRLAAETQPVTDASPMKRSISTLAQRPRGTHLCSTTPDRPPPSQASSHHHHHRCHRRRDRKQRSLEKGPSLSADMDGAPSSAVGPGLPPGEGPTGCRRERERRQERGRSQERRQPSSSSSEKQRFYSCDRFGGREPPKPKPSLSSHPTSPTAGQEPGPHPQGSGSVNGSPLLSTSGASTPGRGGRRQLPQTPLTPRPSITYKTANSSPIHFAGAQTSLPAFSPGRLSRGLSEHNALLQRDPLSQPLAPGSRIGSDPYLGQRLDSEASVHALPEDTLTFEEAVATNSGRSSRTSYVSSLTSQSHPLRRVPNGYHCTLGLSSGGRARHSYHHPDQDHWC", "sequence (Q02410 whole entry)": "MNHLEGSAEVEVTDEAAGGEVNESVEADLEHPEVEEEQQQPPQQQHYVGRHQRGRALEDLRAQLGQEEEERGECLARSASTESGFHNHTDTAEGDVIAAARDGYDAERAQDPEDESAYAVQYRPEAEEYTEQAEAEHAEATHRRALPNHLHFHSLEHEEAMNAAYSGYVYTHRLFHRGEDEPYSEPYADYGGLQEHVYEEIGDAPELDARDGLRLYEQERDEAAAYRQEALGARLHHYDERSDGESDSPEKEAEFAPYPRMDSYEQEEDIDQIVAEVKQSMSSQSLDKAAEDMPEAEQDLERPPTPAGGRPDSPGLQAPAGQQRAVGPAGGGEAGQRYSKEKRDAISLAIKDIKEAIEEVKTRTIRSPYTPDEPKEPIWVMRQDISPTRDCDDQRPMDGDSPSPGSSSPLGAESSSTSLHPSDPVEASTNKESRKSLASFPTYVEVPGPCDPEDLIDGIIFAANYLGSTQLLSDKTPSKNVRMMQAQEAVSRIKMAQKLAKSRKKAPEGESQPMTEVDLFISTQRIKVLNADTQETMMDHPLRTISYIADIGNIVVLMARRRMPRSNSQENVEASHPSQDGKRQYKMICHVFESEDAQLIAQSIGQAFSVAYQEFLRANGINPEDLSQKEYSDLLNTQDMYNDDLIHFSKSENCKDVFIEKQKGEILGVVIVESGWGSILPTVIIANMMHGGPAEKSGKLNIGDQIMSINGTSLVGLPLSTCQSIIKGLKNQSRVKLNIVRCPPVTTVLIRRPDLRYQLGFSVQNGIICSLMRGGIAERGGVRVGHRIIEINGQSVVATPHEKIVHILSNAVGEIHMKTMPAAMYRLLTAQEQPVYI", "assay_type": "protein assay"}, "[5]": {"biological_target": "Homeodomain-interacting protein kinase 4 (Homo sapiens, UniProt Q8NE63)", "assay_type": "functional"}, "[6]": {"biological_target": "Casein kinase II subunit alpha (Homo sapiens, UniProt P68400)", "assay_type": "functional"}, "[7]": {"biological_target": "Protein-tyrosine kinase 2-beta (Homo sapiens, UniProt Q14289)", "sequence (Q14289 whole entry)": "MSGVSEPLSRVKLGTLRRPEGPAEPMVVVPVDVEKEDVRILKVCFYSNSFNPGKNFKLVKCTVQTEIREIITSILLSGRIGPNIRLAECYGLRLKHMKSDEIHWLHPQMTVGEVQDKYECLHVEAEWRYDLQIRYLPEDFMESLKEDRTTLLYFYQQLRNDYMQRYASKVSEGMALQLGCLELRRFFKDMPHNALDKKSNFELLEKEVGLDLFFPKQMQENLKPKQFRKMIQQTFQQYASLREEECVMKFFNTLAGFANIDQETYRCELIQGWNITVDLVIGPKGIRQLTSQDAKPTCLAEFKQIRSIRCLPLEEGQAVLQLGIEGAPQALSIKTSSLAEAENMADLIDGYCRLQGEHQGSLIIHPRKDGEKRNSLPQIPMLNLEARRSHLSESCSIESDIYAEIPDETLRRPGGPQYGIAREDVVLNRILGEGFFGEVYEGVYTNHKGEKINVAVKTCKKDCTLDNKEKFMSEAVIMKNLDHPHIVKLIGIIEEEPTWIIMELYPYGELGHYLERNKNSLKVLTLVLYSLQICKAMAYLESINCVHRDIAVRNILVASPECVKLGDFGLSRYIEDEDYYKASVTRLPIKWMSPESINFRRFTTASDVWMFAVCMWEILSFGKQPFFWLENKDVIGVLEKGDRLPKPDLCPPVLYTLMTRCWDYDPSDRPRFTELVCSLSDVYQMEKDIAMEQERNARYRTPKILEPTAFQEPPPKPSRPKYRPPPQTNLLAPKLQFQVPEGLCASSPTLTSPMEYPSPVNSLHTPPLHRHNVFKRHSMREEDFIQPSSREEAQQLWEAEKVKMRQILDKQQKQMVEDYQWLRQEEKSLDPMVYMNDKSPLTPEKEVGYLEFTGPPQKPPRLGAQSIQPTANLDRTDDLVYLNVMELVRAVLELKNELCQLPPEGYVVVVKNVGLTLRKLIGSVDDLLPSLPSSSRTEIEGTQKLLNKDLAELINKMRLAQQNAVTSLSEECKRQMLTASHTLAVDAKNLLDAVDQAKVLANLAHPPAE", "assay_type": "functional"}, "SRSF protein kinase 1": {"biological_target": "SRSF protein kinase 1 (Homo sapiens, UniProt Q96SB4)", "sequence (Q96SB4 whole entry)": "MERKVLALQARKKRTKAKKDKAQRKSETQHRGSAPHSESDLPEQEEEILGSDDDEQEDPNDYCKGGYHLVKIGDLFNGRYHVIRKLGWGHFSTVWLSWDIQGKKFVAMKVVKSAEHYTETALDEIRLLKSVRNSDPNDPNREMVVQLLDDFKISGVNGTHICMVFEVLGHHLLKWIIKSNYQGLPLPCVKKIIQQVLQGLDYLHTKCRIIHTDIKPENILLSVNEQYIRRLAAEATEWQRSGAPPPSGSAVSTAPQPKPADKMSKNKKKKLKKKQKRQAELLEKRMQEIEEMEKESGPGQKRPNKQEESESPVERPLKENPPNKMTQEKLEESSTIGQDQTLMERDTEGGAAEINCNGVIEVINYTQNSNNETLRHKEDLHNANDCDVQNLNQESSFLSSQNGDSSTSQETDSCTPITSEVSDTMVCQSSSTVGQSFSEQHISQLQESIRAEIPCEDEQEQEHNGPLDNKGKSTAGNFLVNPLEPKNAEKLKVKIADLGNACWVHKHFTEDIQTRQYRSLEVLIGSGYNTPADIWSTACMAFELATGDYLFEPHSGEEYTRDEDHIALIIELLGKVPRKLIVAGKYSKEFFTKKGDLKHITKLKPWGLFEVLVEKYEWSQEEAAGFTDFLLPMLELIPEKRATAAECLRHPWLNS", "assay_type": "functional"}, "Ephrin type-A receptor 2": {"biological_target": "Ephrin type-A receptor 2 (Homo sapiens, UniProt P29317)", "assay_type": "functional"}, "[8]": {"biological_target": "Cyclin-dependent kinase 2 (Homo sapiens, UniProt P24941)", "assay_type": "functional"}, "[9]": {"biological_target": "Tyrosine-protein kinase Fer (Homo sapiens, UniProt P16591)", "assay_type": "functional"}, "[10]": {"biological_target": "Tyrosine-protein kinase Blk (Homo sapiens, UniProt P51451)", "assay_type": "functional"}, "[11]": {"biological_target": "Dual specificity mitogen-activated protein kinase kinase 2 (Homo sapiens, UniProt P36507)", "test": "Navigating the Kinome. Panel member name: MAP2K2", "assay_type": "functional"}, "LIM domain kinase 1": {"biological_target": "LIM domain kinase 1 (Homo sapiens, UniProt P53667)", "test": "Navigating the Kinome. Panel member name: LIMK1", "assay_type": "functional"}, "Aminopeptidase N": {"biological_target": "T3, Aminopeptidase N (Plasmodium falciparum FcB1/Columbia, UniProt O96935)", "T3 sequence (O96935 whole entry)": "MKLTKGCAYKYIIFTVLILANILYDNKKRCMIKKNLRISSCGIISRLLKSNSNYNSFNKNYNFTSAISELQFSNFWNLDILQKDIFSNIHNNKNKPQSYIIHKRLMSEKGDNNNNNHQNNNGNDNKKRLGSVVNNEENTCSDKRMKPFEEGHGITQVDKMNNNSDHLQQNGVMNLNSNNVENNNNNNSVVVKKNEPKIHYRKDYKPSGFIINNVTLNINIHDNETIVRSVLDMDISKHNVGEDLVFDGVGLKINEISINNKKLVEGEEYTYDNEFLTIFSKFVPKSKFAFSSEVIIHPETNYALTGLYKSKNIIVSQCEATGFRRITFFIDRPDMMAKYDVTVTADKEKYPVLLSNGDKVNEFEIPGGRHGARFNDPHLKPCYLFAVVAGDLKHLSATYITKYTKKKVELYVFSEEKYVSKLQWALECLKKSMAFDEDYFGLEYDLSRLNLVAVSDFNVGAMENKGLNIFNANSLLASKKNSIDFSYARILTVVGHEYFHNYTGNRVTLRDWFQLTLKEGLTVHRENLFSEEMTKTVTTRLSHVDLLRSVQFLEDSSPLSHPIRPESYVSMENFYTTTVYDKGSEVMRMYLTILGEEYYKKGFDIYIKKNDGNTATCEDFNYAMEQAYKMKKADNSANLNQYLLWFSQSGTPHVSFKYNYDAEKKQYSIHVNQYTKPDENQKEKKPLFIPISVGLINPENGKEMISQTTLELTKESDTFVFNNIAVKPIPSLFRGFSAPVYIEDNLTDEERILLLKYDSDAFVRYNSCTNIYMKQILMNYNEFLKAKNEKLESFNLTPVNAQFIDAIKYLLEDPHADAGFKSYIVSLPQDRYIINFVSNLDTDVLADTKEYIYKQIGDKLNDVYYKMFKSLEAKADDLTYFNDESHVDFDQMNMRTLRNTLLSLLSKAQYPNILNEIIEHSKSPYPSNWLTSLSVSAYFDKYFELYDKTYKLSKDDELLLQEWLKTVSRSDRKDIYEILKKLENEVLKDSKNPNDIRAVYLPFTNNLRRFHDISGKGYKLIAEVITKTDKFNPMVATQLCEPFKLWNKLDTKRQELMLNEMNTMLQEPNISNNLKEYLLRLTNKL", "test": "P. falciparum M1AAP inhibitors, biochemical, fluorogenic H-Leu-NHMec substrate, 1536-well (AID 1445)", "parameters": "species or system Plasmodium falciparum 3D7, 3D7"}, "Nonstructural protein 1": {"biological_target": "Nonstructural protein 1 (Influenza A virus, UniProt Q194T2)", "assay_type": "functional, Influenza A virus (A/California/07/2009(H1N1))"}, "BJ": {"tested_on": "BJ", "test": "cytotoxicity toward BJ-TERT-LT-ST fibroblasts, dose response, cell-based, RAS-independent, luminescence (AID 1935);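 further: BJ fibroblasts immortalized with TERT plus LT and ST oncogenes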", "assay_type": "functional", "details": "Homo sapiens"}, "[12]": {"biological_target": "C-C chemokine receptor type 6 (Homo sapiens, UniProt P51684)", "test": "CCR6 receptor antagonists, dose response, cell-based, luminescent beta-arrestin readout (AID 504728)", "assay_type": "functional"}}, "note": "The source made the active and inactive calls.", "data": [{"smiles": "COc1cccc2c1NC(C(=O)O)C1CC=CC21", "note": "(stereo not drawn)", "values": [{"measurement": "EC50", "setting": "[1]", "value": "8.25 µM (active)"}, {"measurement": "IC50", "setting": "[2]", "value": "> 100 µM (active)"}, {"measurement": "IC50", "setting": "[3]", "value": "14 µM (active)"}, {"measurement": "IC50", "setting": "[4]", "value": "13.2 µM (active)"}]}, {"smiles": "Cc1ccc(F)c(NC(=O)Nc2ccc(-c3cccc4[nH]nc(N)c34)cc2)c1", "note": "[LINIFANIB]", "values": [{"measurement": "Ki", "setting": "[5]", "value": "0.0398 µM (active)"}, {"measurement": "Ki", "setting": "[6]", "value": "5.01 µM (active)"}, {"measurement": "Ki", "setting": "[7]", "value": "> 1.58 µM (inactive)"}, {"measurement": "Ki", "setting": "SRSF protein kinase 1", "value": "7.94 µM (active)"}, {"measurement": "Ki", "setting": "Ephrin type-A receptor 2", "value": "2.51 µM (active)"}, {"measurement": "Ki", "setting": "[8]", "value": "> 7.94 µM (inactive)"}, {"measurement": "Ki", "setting": "[9]", "value": "0.501 µM (active)"}, {"measurement": "Ki", "setting": "[10]", "value": "0.316 µM (active)"}]}, {"smiles": "COc1c(-c2nc3ccccc3[nH]2)c(O)cc2oc(C)cc(=O)c12", "values": [{"measurement": "Ki", "setting": "[11]", "value": "0.398 µM (active)"}, {"measurement": "Ki", "setting": "LIM domain kinase 1", "value": "0.0316 µM (active)"}]}, {"smiles": "Cc1cc([N+](=O)[O-])cc(/C=N\\NC(=O)C2COc3ccccc3O2)c1O", "note": "(stereo not drawn)", "values": [{"measurement": "IC50", "setting": "Aminopeptidase N", "value": "3.05 µM (active)"}]}, {"smiles": "CCc1ccc(S(=O)(=O)/N=C2\\C=C(Nc3ccc(O)cc3)C(=O)c3ccccc32)cc1", "values": [{"measurement": "IC50", "setting": "Nonstructural protein 1", "value": "5.88 µM (active)"}, {"measurement": "EC50", "setting": "BJ", "value": "2.83 µM (active)"}, {"measurement": "IC50", "setting": "[12]", "value": "> 66.6 µM (inactive)"}]}]}
